# Values quoted from earlier work in article PMC5741288 (Pain Reports, 2016).
# Test system: carrageenan-evoked thermal hyperalgesia
# Conditions: cited from earlier work
structure (smiles),measurement,setting,value
"CC(C)(O)c1ccccc1-c1ccc2[nH]c(/C=C/c3ccc(C(F)(F)F)cc3)nc2c1 [JNJ-39439335, trans-2-(2-{2-[2-(4-Trifluoromethyl-phenyl)-vinyl]-1H-benzimidazol-5-yl}-phenyl)-propan-2-ol]",Near maximally effective plasma concentration at the ED80,rat carrageenan model of inflammatory pain,9 ng/mL
same,Carrageenan-evoked thermal hyperalgesia,rat,significantly attenuated
